From ChEMBL document CHEMBL4371054, “Dual inhibition of Kif15 by oxindole and quinazolinedione chemical probes” (Bioorg Med Chem Lett, 2019)
The source made the active and inactive calls. No cut-off for these calls is given here.

Experiments:
[1] = molecular target: T1, Kinesin-like protein KIF15 (Homo sapiens, UniProt Q9NS87); assay: Inhibition of recombinant His6-tagged Kif15 ATPase activity (N420 residues) (unknown origin) expressed in HeLa cells using microtubule as substrate preincubated for 15 mins followed by ATP addition and measured after 20 mins by ADP-Glo luminescence assay
T1 sequence (Q9NS87 whole entry): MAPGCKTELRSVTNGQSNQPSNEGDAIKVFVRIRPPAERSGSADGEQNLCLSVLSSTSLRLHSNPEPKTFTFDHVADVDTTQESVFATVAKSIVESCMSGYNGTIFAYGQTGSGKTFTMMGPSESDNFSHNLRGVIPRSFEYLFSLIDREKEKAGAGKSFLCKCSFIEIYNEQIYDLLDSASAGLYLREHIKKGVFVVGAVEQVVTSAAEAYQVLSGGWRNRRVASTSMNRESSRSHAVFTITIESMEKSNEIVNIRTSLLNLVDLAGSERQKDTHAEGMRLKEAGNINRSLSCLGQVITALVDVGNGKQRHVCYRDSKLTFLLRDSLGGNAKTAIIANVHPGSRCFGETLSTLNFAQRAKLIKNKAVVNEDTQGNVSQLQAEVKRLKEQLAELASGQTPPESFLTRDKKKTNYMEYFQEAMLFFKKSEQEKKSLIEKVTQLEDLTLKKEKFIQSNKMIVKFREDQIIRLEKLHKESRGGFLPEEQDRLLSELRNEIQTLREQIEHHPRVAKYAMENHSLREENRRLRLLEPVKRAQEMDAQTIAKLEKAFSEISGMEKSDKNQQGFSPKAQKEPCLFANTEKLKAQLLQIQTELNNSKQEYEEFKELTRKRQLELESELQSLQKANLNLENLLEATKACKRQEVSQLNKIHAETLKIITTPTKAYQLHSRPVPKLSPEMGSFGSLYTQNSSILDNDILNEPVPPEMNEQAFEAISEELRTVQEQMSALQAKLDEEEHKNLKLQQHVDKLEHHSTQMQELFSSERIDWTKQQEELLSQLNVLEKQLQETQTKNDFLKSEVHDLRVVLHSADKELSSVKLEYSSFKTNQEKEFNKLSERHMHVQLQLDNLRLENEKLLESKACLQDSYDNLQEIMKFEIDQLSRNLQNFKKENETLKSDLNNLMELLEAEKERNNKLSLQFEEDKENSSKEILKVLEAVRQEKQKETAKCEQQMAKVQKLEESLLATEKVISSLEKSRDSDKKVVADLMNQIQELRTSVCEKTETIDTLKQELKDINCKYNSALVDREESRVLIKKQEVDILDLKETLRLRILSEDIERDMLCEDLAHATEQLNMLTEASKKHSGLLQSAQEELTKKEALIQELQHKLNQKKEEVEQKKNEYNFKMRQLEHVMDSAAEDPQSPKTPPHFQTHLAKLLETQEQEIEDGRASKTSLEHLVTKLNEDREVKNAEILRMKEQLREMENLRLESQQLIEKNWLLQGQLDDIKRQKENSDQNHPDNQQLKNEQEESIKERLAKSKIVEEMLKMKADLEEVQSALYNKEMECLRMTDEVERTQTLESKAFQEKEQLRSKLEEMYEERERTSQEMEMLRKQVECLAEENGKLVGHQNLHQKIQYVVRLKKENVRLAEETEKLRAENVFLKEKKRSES

[2] = molecular target: T2, Kinesin-like protein KIF15 (Homo sapiens) (UniProt Q9NS87); assay: Inhibition of Kif15 in TP53-deficient human RPE1 cells assessed as effect on spindle length at 25 uM after 24 hrs by Hoechst 33342 staining based immunofluorescence microscopic analysis (reference value: 11.4 +/- 0.2 um)
T2 sequence (whole entry): T1 sequence (Q9NS87 whole entry)

[3] = molecular target: T2, Kinesin-like protein KIF15 (Homo sapiens); assay: Reversible inhibition of recombinant His6-tagged Kif15 (N700 residues) (unknown origin) expressed in HeLa cells assessed as reduction in Alexa-594 labelled microtubule gliding at 10 uM treated for 1 min followed by compound washout and measured every 2 secs for 1 min by epifluorescence microscopic analysis; assay type: cell-based
[4] = molecular target: T2, Kinesin-like protein KIF15 (Homo sapiens); assay: Inhibition of recombinant His6-tagged Kif15 ATPase activity (N420 residues) (unknown origin) expressed in HeLa cells at 10 uM using microtubule as substrate preincubated for 15 mins followed by ATP addition and measured after 20 mins by ADP-Glo luminescence assay relative to control
[5] = molecular target: T3, Kinesin-like protein KIF18A (Homo sapiens) (UniProt Q8NI77); assay: Inhibition of Kif18A (unknown origin) assessed as reduction in Alexa-594 labelled microtubule gliding at 30 uM measured every 2 secs for 20 secs by epifluorescence microscopic analysis relative to control
T3 sequence (whole entry): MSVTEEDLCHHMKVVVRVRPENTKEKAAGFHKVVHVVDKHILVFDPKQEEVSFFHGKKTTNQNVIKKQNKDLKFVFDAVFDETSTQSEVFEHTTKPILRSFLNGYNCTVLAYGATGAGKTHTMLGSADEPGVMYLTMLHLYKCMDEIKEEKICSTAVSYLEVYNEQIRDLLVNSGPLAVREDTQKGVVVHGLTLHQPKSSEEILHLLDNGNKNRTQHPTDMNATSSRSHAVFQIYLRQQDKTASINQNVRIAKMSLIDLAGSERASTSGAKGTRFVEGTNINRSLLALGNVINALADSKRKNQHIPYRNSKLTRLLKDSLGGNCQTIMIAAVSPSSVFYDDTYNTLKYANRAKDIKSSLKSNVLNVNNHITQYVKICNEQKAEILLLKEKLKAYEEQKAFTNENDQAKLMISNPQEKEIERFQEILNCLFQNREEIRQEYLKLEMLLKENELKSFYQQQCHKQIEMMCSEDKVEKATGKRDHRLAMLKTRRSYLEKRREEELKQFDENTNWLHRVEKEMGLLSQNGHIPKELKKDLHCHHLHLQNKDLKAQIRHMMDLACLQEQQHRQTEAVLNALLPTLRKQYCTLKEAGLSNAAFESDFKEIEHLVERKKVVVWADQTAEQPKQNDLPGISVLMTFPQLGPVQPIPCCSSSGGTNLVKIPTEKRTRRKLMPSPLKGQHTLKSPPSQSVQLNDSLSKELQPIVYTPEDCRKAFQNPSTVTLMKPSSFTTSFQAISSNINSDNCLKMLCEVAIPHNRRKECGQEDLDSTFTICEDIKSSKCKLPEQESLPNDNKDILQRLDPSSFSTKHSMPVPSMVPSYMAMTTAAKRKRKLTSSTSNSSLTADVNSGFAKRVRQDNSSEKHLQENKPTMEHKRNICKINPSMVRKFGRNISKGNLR

[6] = molecular target: T2, Kinesin-like protein KIF15 (Homo sapiens); assay: Inhibition of Kif15 in K51-resistant human KIRC1 cells assessed as cells with monopolar spindles at 25 uM after 24 hrs by Hoechst 33342 staining based immunofluorescence microscopic analysis (reference value: 43 to 49%); parameters: scale not given: the % may be the effect or the level left
[7] = molecular target: T2, Kinesin-like protein KIF15 (Homo sapiens); assay: Inhibition of Kif15 in TP53-deficient human RPE1 cells assessed as reduction in spindle-bound Kif15 level at 25 uM after 24 hrs by Hoechst 33342 staining based immunofluorescence microscopic analysis relative to control
[8] = molecular target: T2, Kinesin-like protein KIF15 (Homo sapiens); assay: Inhibition of recombinant His6-tagged Kif15 (N700 residues) (unknown origin) expressed in HeLa cells assessed as reduction in Alexa-594 labelled microtubule gliding at 30 uM measured every 2 secs for 20 secs by epifluorescence microscopic analysis relative to control; assay type: cell-based

O=C1Nc2ccc(C(=O)c3ccco3)cc2/C1=C/c1cc(Cl)c(O)c(Cl)c1 was tested, and the IC50 [1] was 820 nM, the inhibition [2] was “inactive” and the inhibition [3] was “Active”. The inhibition [4] was 76%, the inhibition [5] was 4.9% and the Activity [6] was 95%. It also gave a fold change (FC) [7] of 3 and an inhibition [8] of 98.9%.
